≈ marks a conversion by molar mass, not a printed value.
Assays:
[1] = cited from earlier work
[2] = Dissolution of the active agent in the capsule fill (glycerol monocaprylocaprate, BHT); format: physicochemical; conditions: glycerol monocaprylocaprate and BHT, 20-23 °C, stirred
From the text: Another advantage of the process as herein disclosed is that it is highly reproducible and robust independently of the water content of the active agent. […] However, when the active agent has a water content higher than 0.05% measured by Karl Fischer titration, the components of the fill are completely dissolved at the same range of temperatures. Furthermore, the inventors have been able to establish an optimum range of working temperatures able to obtain a fill solution completely dissolved homogeneously with active agents with a water content higher than 0.05 % w/w.
• Glycerol monocaprylocaprate was added to a stainless steel tank equipped with cooling jacket to keep it at a temperature of 20-23 °C. It was stirred until completely dissolved. • Butylhydroxytoluene (BHT) was added to the tank and stirred until completely dissolved. • Finally dutasteride anhydrous was added to the tank. • The resulting solution was kept at a range of temperature of 20-23 °C. […] Water content of the active agent and the range of temperatures were studied to avoid dissolution problems.

Q: With C[C@]12C=CC(=O)N[C@@H]1CC[C@@H]1[C@@H]2CC[C@]2(C)[C@@H](C(=O)Nc3cc(C(F)(F)F)ccc3C(F)(F)F)CC[C@@H]12 [Dutasteride, 17-beta-N-[2,5-bis(trifluoromethyl)]phenylcarbamoyl-4-aza-5-alpha-androst-1-en-3-one] as the compound, how does the solubility in water [1] read?
A: 0.38 ng/mL (≈ 0.719 nM)

Q: For C[C@]12C=CC(=O)N[C@@H]1CC[C@@H]1[C@@H]2CC[C@]2(C)[C@@H](C(=O)Nc3cc(C(F)(F)F)ccc3C(F)(F)F)CC[C@@H]12 [dutasteride anhydrous, 17-beta-N-[2,5-bis(trifluoromethyl)]phenylcarbamoyl-4-aza-5-alpha-androst-1-en-3-one], which “dissolution in the capsule fill solution” value [2] is on record?
A: not possible to obtain a completely dissolved solution
